Test results taken from patent US3937838A, “Orally active bronchospasmolytic compounds and their preparation” (priority 1966, dated 1976).
Read-outs that look alike come from different tables or passages of the source.

Columns and labels:
[1] = test system: bronchospasm induced by histamine aerosol; assay: Protecting effect against histamine aerosol in intact guinea pigs (Example 7c); type: in vivo, guinea pig; conditions: Cavia porcellus, m ± s.e., read-out: ED50 (protecting 50 per cent of the animals for more than 4 minutes)
Protocol: The compounds KWD2109 and KWD2025 have been compared in preventing bronchospasm induced by histamine aerosol in guinea pigs.
The drug was injected intraperitoneally 15 minutes (Table 2) or administered orally 30 minutes (Table 3) before histamine treatment. The dose of the drugs protecting 50 per cent of the animals for more than 4 minutes is denoted "ED50". In untreated animals only 1-2 percent will withstand the histamine aerosol for more than 4 minutes.
To study the duration of the effect, 2 mg/kg was administered orally to intact guinea pigs at different time intervals before the histamine treatment. Two series each including eleven groups of six animals was studied. The groups were tested in histamine aerosol 10, 20, 30, 40, 50, 60, 120, 180, 240, 300 and 360 minutes after the administration of the compound. The per cent of animals in each group protected more than 4 minutes and more than 10 minutes was determined.

[2] = test system: histamine induced bronchoconstriction; assay: Bronchospasmolytic effect in vivo, Konzett and Rossler (Example 5b); design: species or system guinea pig; conditions: measured as described above
Protocol: Orciprenaline and terbutaline were also tested in vivo according to the method described by Konzett and Rossler [Arch. Exp. Path. Pharmak. 195 (1940) page 71]. In the method of Konzett and Rossler, the animal is ventilated with a constant volume of air. When a certain pressure has been reached in the lung, the volume of air which is in excess of the pulmonary capacity will escape through the valve. This surplus of air is recorded. The testing compounds in the Konzett and Rossler method, bronchial contraction is provoked by administration of histamine. The histamine reduced the capacity of the airways, and the measured overflow increases. In order to see to what extent a test compound counteracts the histamine-induced bronchospasm, the animal is first given an injection of the test compound which is followed 3 minutes later by exposure to histamine.

[3] = test system: isolated guinea pig auricle; assay: Dual bath preparation, effect on left auricle (Example 8a); conditions: same bath
Protocol: The left auricle was dissected out and mounted together with spirally-cut trachea from the same animal in a 100 ml bath in Kreb's solution (37°C.) well aereated with a mixture of oxygen (95%) and carbon dioxide (5%). The auricle was electrically stimulated with square wave pulses from a Techtronic Stimulator (voltage 2-4; duration: 10 m sec; frequency 1 per second). This is, in general, the same procedure described above in Example 5c.
Using the dual bath preparation, tests were made of the effect on the trachea and auricle of KWD2025 (of the present invention) and of the known drugs KWD2109 and epinephrine. The drug to be tested was added to the bath in the predetermined amount and allowed to act upon the organs for 10 minutes.

[4] = test system: isolated guinea pig heart; assay: Effect on isolated guinea pig heart, Langendorff (Example 7d); conditions: KWD2025 given index 1.0
Protocol: The isolated guinea pig heart was perfused according to Langendorff. The method used is described by Anden et al. (Acta. Pharmacol. et Toxicol. 21, 247, 1964). Contractions in the heart were recorded by means of a force displacement transducer and aa Grass polygraph Model 7. Epinephrine was used as reference. KWD2109 and KWD2025 were tested on the same preparation. The comparisons of effects were based on dose for 50 percent increase in chronotropic effect and 10 percent increase in inotropic effect.

[5] = Acute toxicity in mice (Example 9); conditions: mouse, in vivo, iv, mice
isolated rabbit heart = assay: Effect on isolated heart, Langendorff preparation (Example 5d); conditions: same procedure
Protocol: The effect of the compound of the present invention was also studied on isolated rabbit heart (Langendorff preparation) the method used as described by Anden et al. (Acta Pharmacol. et Toxicol., 21 (1964) page 247). In this procedure, the isolated heart is mounted in a Krebs solution and the test compound is injected into it. Measurements are continuously recorded of the rate and force of contraction.
The tests using epinephrine establish a standard of comparison to evaluate subsequent test compounds in the same preparation.

[6] = Toxicity study in mice (Example 18); type: in vivo; conditions: mouse, in vivo, mice (NMRI, male), 24 hours, read-out: LD 50 + Standard error
Protocol: (§1) The toxicity was studied in mice (NMRI, male, 18-28 g) 24 hours after i.v. and oral administration. The animals were observed during five days. No further deaths occurred.

mice = assay: Toxicity study in mice (Example 18); type: in vivo; conditions: indicated by higher oral toxicity
Protocol: as §1

[7] = test system: isolated guinea pig heart; assay: Effect on isolated heart from guinea pig, Langendorff (Example 16); conditions: for direct heart effect relative to terbutaline: per se
Protocol: The isolated guinea pig heart was perfused according to Langendorff. The method used is described by Anden et al. [Acta Pharmacol. et Toxicol. 21, 247, (1964)]. Contractions in the heart were recorded by a force displacement transducer and a Grass polygraph model 5. The recovery of the heart was tested with (-) epinephrine between every dose of the substance tested. Terbutaline was used as reference.

guinea pig trachea = assay: Bronchospasmolytic effect in vitro (Example 13); conditions: for bronchospasmolytic effect x (-)epinephrine: based on ED50-values, weight basis, Table 7; for bronchospasmolytic effect in vitro relative to terbutaline: per se
Protocol: The trachea from a guinea pig was dissected out and spirally cut. It was mounted in a water-jacketed bath (37°C.) in Krebs solution and aerated with oxygen (95%) and carbon dioxide (5%). Pilocarpine (2 μg/ml) was added. The load was adjusted to about 2 g and relaxations in the trachea were recorded by means of a Grass force displacement transducer and a Grass polygraph model 5 (see Example 5 above). The cumulative method was used (-)-Epinephrine was used as reference. The comparisons presented in Table 7 are based on ED50 -values.

[8] = test system: histamine-induced bronchospasm; assay: Bronchospasmolytic effect in the anesthetized cat, Konzett & Rossler (Example 14); type: in vivo; conditions: i.v.; based on ED50-values; weight basis; Table 8
Protocol: Bronchospasmolytic effect was studied according to the method of Konzett & Rossler (see Example 5b above). Bronchospasm was induced by i.v. injections of histamine into the left jugular vein. Overflow was recorded by means of a Grass volume transducer and a Grass polygraph model 5. Changes in arterial mean pressure and heart rate, were continuously recorded during the experiment. Terbutaline was used as reference in all experiments. The comparisons are based on ED50 -values.

[9] = test system: bronchoconstriction by histamine aerosol; assay: Protecting effect against histamine aerosol in guinea pigs (Example 15); type: in vivo, guinea pig; conditions: for ED50: Cavia porcellus, read-out: ED50 (protecting 50 percent of the animals for more than 4 minutes)
Text: Male guinea pigs (200--300 g) were used. Bronchoconstriction was produced by letting the animals inhale a histamine aerosol.

[10] = test system: arterial mean pressure, pulse pressure, heart rate, peripheral vascular resistance; assay: Haemodynamic studies in anesthetized cats (Example 17); type: in vivo, cat
Protocol: The haemodynamic effects of KWD2058 and terbutaline were studied in anesthetized cats after i.v. injection in the left femoral vein. Three experiments were done. The effects on arterial mean pressure, pulse pressure (right carotid artery) and heart rate were recorded.
To study the effect of the compounds on the peripheral vascular resistance, constant flow was arranged in the right hind limb on two cats by means of a Sigma motor pump connected to arteria femoralis. Injections were made intra-arterially and variations in the peripheral resistance were recorded as pressure changes.

[11] = test system: spirally cut trachea from the guinea pig; assay: Dual preparation test in vitro, effect on trachea (Example 5c); conditions: slow infusion; 0.375 μg/min where stated; FIGS. 2-4
Text: (§2) [This procedure is more fully described below in Example 5 (b)].
(§3) FIG. 2 illustrates the effect of epinephrine (EPE) and terbutaline on spirally cut trachea and right auricle from the guinea pig. Both preparations are dissected out from the same animal and run under identical experimental conditions;
(§4) Both preparations are dissected out from the same animal, and run under identical experimental conditions;
(§5) Both preparations are dissected out from the same animal and run under identical experimental conditions;
(§6) The relation between the heart stimulatory effect and bronchodilator effect was studied in vitro on auricle-trachea-preparation from the guinea pig in order to compare the effect on the heart and the effect on the bronchial muscle under identical experimental conditions. Both spontaneously bearing auricle and spirally-cut trachea were placed in the same bath in Krebs solution. Both preparations were taken from the same animal.
(§7) The compound to be tested was slowly infused into the bathing solution and the tension was measured for each of the auricle and trachael preparations.
(§8) In carrying out this dual preparation test, epinephrine was used as a reference. […] Infusion of epinephrine was made over a period of ten minutes. After washing and recovery, the test solution was infused in the same manner and the effect of the test compound was compared with the effect of epinephrine.

[12] = test system: right auricle from the guinea pig; assay: Dual preparation test in vitro, effect on auricle (Example 5c); conditions: slow infusion; 0.375 μg/min where stated; FIGS. 2-4
Text: as §2, §3, §4, §5, §6, §7, §8
Referring more specifically to FIG. 2, the upper portion of each chart thereof represents the tension continuously recorded of the auricle preparation (shaded area 1 for the effect of epinephrine on the auricle, ref. no. 2 for the effect of terbutaline infused at a rate of 0.2 μg/min on the auricle, and ref. no. 3 for the effect of terbutaline infused at a rate of 0.375μg/min on the auricle).

| Compound | LD50 at 24 h ([6]; iv) | LD50 at 24 h ([6]; po) | oral absorption in comparison with terbutaline (mice) | effect on heart rate x terbutaline ([7]; Table 10) | direct heart effect relative to terbutaline [7] | bronchospasmolytic effect x (-)epinephrine (guinea pig trachea) | bronchospasmolytic effect in vitro relative to terbutaline (guinea pig trachea) | bronchospasmolytic effect x terbutaline [8] | ED50 ([9]; ip, 0.25 h) | ED50 ([9]; po, 0.5 h) | other results |
| --- | --- | --- | --- | --- | --- | --- | --- | --- | --- | --- | --- |
| Oc1cc(O)cc(C(O)CNC2CCC2)c1 (stereo not drawn) [KWD2025, 1-(3',5'-dihydroxyphenyl)-2-(cyclobutylamino)-ethanol] | – | – | – | – | – | – | – | – | – | – | ED50 ([1]; ip, 0.25 h, i.p., 15 minutes before histamine-aerosol): 0.6 ± 0.07 mg/kg; ED50 ([1]; po, 0.5 h, peroral, 30 minutes before histamine-aerosol): 1.7 ± 0.3 mg/kg; bronchospasmolytic effect relative to epinephrine [2]: about 0.4 times; bronchospasmolytic effect relative to orciprenaline [2]: about 1.2 times; effect on force of contraction in auricle in concentrations relaxing the trachea [3]: relaxed the trachea without affecting the auricle; therapeutic index, bronchospasmolytic effect over effect on the heart (inotropic) [4]: 1.0; LD50 [5]: 54 mg/kg; cardiac stimulatory effect relative to epinephrine (isolated rabbit heart): less than 0.1 times |
| CC(=O)Oc1cc(OC(C)=O)cc(C(O)CNC(C)(C)C)c1 (stereo not drawn) [KWD2037] | 112 ± 5 mg/kg | 2100 mg/kg | improved oral absorption in comparison with terbutaline | 0.05 ± 0.01 | much less direct heart effect | 0.7 | weaker bronchospasmolytic effect in vitro than terbutaline | 0.7 ± 0.1 | 0.7 mg/kg | 0.4 mg/kg | effect on force of contraction x terbutaline ([7]; Table 10): 0.03 ± 0.01 |
| CCC(=O)Oc1cc(OC(=O)CC)cc(C(O)CNC(C)(C)C)c1 (stereo not drawn) [KWD2057] | 70 ± 4 mg/kg | 2200 mg/kg | improved oral absorption in comparison with terbutaline | 0.06 | much less direct heart effect | 0.4 | weaker bronchospasmolytic effect in vitro than terbutaline | 0.5 | 0.2 mg/kg | 1 mg/kg | – |
| Br.CC(C)C(=O)Oc1cc(OC(=O)C(C)C)cc(C(O)CNC(C)(C)C)c1 (stereo not drawn) [KWD2058, 1-(3',5'-diisobutyryloxyphenyl)-2-(t-butylamino)-ethanol hydrobromide] | 52 ± 4 mg/kg | 2150 mg/kg | improved oral absorption in comparison with terbutaline | – | much less direct heart effect | 0.6 ± 0.2 | weaker bronchospasmolytic effect in vitro than terbutaline | 1.0 ± 0.1 | – | – | effect on arterial mean pressure, pulse pressure, heart rate and peripheral vascular resistance relative to terbutaline ([10]; cat, summary): about half; arterial mean pressure, x terbutaline ([10]; i.v., anesthetized cats): 0.4+0.1 × terbutaline; heart rate, x terbutaline ([10]; i.v., anesthetized cats): 0.4±0.1 × terbutaline; pulse rate, x terbutaline ([10]; i.v., anesthetized cats, pulse pressure in text): 0.4±0.1 × terbutaline; change in peripheral resistance, x terbutaline ([10]; intra-arterial, right hind limb, constant flow): 0.4±0.1 × terbutaline; effect on heart rate ([7]; doses up to 100 μg): no effect; ED50 ([9]; 0.5 h, oral, 30 minutes before histamine): 0.15 mg/kg; ED50 ([9]; ip, 0.25 h, i.p., 15 minutes before histamine): 1 mg/kg; protecting effect relative to terbutaline ([9]; oral): 2.5 times; oral absorption in comparison with terbutaline ([9]; seen in oral ED50, Table 9): particularly good oral absorption in comparison with terbutaline |
| NC[C@H](O)c1ccc(O)c(O)c1 [norepinephrine, reference compound] | – | – | – | – | – | – | – | – | – | – | effect on trachea (relaxation) [11]: without affecting the bronchial muscles; effect on auricle (tension) [12]: strong effect on the heart muscle |
